System: primary human pancreatic cells
Experiment: Attachment and growth of primary pancreatic cells on ECM-coated surfaces (cell counting, MTS metabolic activity assay)
Type: cell-based
Settings: 10^5 cells/cm^2, grown 8 days; FIG. 4A
Method: The attachment of primary human pancreatic cells was evaluated by counting the number of attached cells vs. the number of cells initially seeded on a panel of ECM surfaces comprised of Collagen I (1 μg/cm^2), Fibronectin (3 μg/cm^2), Laminin (2 μg/cm^2), Vitronectin (1 μg/cm^2), Matrigel (1 μg/cm^2), Human ECM (1 μg/cm^2), or Poly-D -Lysine (3 μg/cm^2). In one condition, a mixture of Collagen IV, Laminin, and Fibronectin was utilized. […] Excess ECM solution was then removed and surfaces were rinsed twice in water. Just before seeding cells, the water was aspirated, then cells were seeded onto the ECM surface at a density of 1×10^5 cells/cm^2 in growth medium (PCM) composed of DMEM:HamsF12 mixture (1:1) with 4 mM glutamine, 1×ITS supplement (GIBCO 51500-056), 10% Fetal Calf Serum (Inactivated, Qualified, GIBC 26140-079), and 10 ng/ml Epidermal Growth Factor (EGF) (BD 4001). Cells were seeded onto tissue-culture polystyrene surface as a control. […] The metabolic activity of cells subjected to the various conditions was determined by an MTS assay. Viable cells were measured using the MTS assay (Promega CellTiter 96 Aqueous One Solution Cell Proliferation Assay), a colorimetric method for determining the number of viable cells in proliferation or cytotoxicity. […]

Fibronectin
cell attachment and expansion on coated surface: suitable surface for cell attachment and expansion

Laminin
cell attachment and expansion on coated surface: suitable surface for cell attachment and expansion

Reference: patent US20060122104A1, “Methods for in vitro expansion and transdifferentiation of human pancreatic acinar cells into insulin-producing cells” (priority 2002, published 2006)
